Data on 18 compounds can be found in patent publication US5332811A, “Etopside analogs” (priority 1991, dated 1994).

Series [1] relates to Human DNA topoisomerase II. The note with it: at higher concentrations; Thurston et al. 1986; cited from earlier work.
For series [2], the target named is Human DNA topoisomerase II. The series is described as follows: DNA topoisomerase II assay (P4 unknotting reaction). Format: biochemical. Particulars: for IC50: read-out: Inhibition of DNA Topoisomerase II Activity ID50; for inhibition of DNA topoisomerase activity relative to etoposide: compared with etoposide. How it is done: (§1) The compounds of the present invention were tested for their degree of inhibitory activity on human type II DNA topoisomerase, their effect on the formation of protein-linked DNA breakage, and their cytotoxicity. […] For a description of the assays used with respect to the compounds listed in Tables 1 to 5 see Thurston, L.S., Irie, H., Tani, S., Han, F. S., Liu, Z. C., Cheng, Y.C., and Lee, K. H., Antitumor Agents 78. Inhibition of Human DNA Topoisomerase II by Podophyllotoxin and Peltatin Analogues, J. Med. Chem. 29, 1547 (1986), and the references cited therein, herein incorporated by reference.
Human DNA topoisomerase II was isolated from peripheral blast cells of a patient with acute leukemia. The isolation procedure is described in Thurston, L., Imakura, Y., Haruna, M., Li, Z. C., Liu, S. Y., and Lee, K. H., J. Med. Chem., 31, […] (1988) and is a partial combination of the procedure described in Goto, T., Laiapia, P. and Wang, J., J. Biol. Chem., 259, 10422 (1984) and Halligan, B., Edwards, K., and Liu, L., J. Biol. Chem., 260, 2475 (1985) which are herein specifically incorporated by reference.
(§2) Drugs were dissolved in Me2 SO at a concentration of 20 mM as the stock solution and diluted before use with water to the desired concentration of each drug.
The P4 unknotting reaction was a modification of the procedure described by Hseih, T., J. Biol. Chem., 258, 8413 (1985), which is herein specifically incorporated by reference.
The reaction mixture (20 μL), which contained 50 mM HEPES, pH 7.0, 50 mM KCI, 100 mM NaCl, 0.1 mM EDTA, 10 mM MgCl2, 1.0 mM ATP, 50 μg/mL bovine serum albumin, 0.4 μg P4knotted DNA, and enzyme, was incubated with or without drugs.
The reaction mixture was incubated at 37° C. for 30 min and terminated by adding 5.0 μl of a stop solution (2% sodium dodecyl sulfate, 20% glycerol, 0.05% bromophenol blue). These samples were loaded onto a 1% agarose gel and electrophoresed at 55 V overnight with an electrophoresis buffer that contained 90 mM Tris-boric acid, pH 8.3, and 2.5 mM EDTA. At completion, the gel was stained in 0.5 μg/mL of ethidium bromide. Then a photograph was taken of the DNA bands visualized with fluorescence induced by a long-wavelength UV lamp. […]

A further series deals with KB cells. The series is described as follows: Cytotoxicity: 50% reduction in cell number of KB cells after three day incubation. The series is classed as cell-based. The note with it: Homo sapiens, 72 h, KB cells, three day incubation, read-out: Cytotoxicity ID50 KB. The method, then: as §1, with “cytotoxicity. The inhibitory activity for compounds of the present invention correlated with the ability of the compounds to cause DNA strand breakage.” for “cytotoxicity.”
in cell number after three day incubation.

For series [3] the following is noted: clinical level; background; cited from earlier work.
For series [4] the following is noted: clinical level; background; cited from earlier work. This is another data set of the same source.
The test system of series [5] is several human neoplasms, including small cell carcinomas of the lung, testicular carcinomas, Hodgkin's disease, leukemia, lymphoma and Kaposi's Sarcoma. Particulars: background; cited from earlier work.
Series [6] relates to covalent topoisomerase II-DNA complexes. The series is described as follows: K-SDS precipitation assay for protein-DNA complexes in KB ATCC cells (cellular protein-DNA complex formation). Format: cell-based. Particulars: compared with etoposide. The method, then:
as §1, with “cytotoxicity. The inhibitory activity for compounds of the present invention correlated with the ability of the compounds to cause DNA strand breakage.” for “cytotoxicity.”
as §2
The intracellular formation of covalent topoisomerase II-DNA complexes was quantitated using the potassium SDS precipitation assay, a procedure adapted from the method described in Rowe, T. C., Chen, G. L., Hsiang, Y. H., and Liu, L., Cancer Res., 46, 2021 (1986) (hereinafter Rowe et al.), which is herein specifically incorporated by reference. KB ATCC cells were prelabeled with 0.05 mCi/ml ^14 C-thymidine (specific activity 50.5 mCi/mmol) for 18 hr. A final concentration of 5×10^5 cells/sample were treated with 10 μM of the drugs at 37° C. for 1 hr and proceeded according to the procedure described by Rowe et al. to detect the protein linked DNA levels.

[7] abbreviates: Table 2, based on degree of inhibition at 10, 25, 50 and 100 μM.
The mark [8] stands for this setting: Table 3, based on degree of inhibition at 20, 25, 50 and 100 μM.
The mark [9] stands for this setting: Table 4, based on degree of inhibition at 10, 25, 50 and 100 μM.
[10] abbreviates: Table 1, based on degree of inhibition at 25, 50, and 100 μM.

Like-named read-outs stand apart in the source and are kept apart here.

`CCOC1c2cc3c(cc2C(c2cc(OC)c(O)c(OC)c2)C2C(=O)OCC12)OCO3` (stereo not drawn) [4'-demethyl-epipodophyllotoxin ethyl ether]: the “inhibitory activity of DNA topoisomerase II” value in series [1] is “preserves the inhibitory activity of DNA topoisomerase II intact at higher concentrations”.

With `COc1cc(C2c3cc4c(cc3C(Nc3cccc(O)c3)C3COC(=O)C23)OCO4)cc(O)c1O` (stereo not drawn) [Example 19, 3',4'-O-Didemethyl-4β-(3"-hydroxyanilino)-4-desoxypodophyllotoxin], the IC50 was 10 µM in series [2] (setting [7]) and 1600 nM in the series on KB cells (Table 2).

Take `COc1cc([C@@H]2c3cc(O)c(O)cc3[C@@H](Nc3ccc(C#N)cc3)[C@H]3COC(=O)[C@H]23)cc(OC)c1O` [Example 29, 6,7-O-Demethylene-4'-O-demethyl-4β-(cyanoanilino)-4-deoxypodophyllotoxin]: the IC50 was 20 µM in series [2] (setting [8]) and 1000 nM in the series with KB cells (Table 3).

Turning to `COc1cc([C@@H]2c3cc4c(cc3[C@@H](NC(=O)c3ccccc3O)[C@H]3COC(=O)[C@H]23)OCO4)cc(OC)c1O` [Example 35, 4'-O-Demethyl-4β-[(2-hydroxylbenzoyl)amino]-4-desoxypodophyllotoxin], the IC50 in series [2] (setting [9]) is 50 µM; in the series with KB cells (Table 4), less than 1000 nM.

As to `COc1cc([C@@H]2c3cc4c(cc3[C@@H](O[C@@H]3O[C@@H]5CO[C@@H](C)O[C@H]5[C@H](O)[C@H]3O)[C@H]3COC(=O)[C@H]23)OCO4)cc(OC)c1O` [etoposide], the oral bioavailability entry in series [3] is given as “poor oral bioavailability”. In addition, the IC50 in the series on KB cells (Table 1) was 200 nM. The myelosuppression result in series [4] is given as “myelosuppression”. In series [5], the “therapeutic activity in several human neoplasms” value is “exhibits therapeutic activity in several human neoplasms”.

For the compound `COc1cc(C2c3cc4c(cc3C(NCc3ccc(C#N)cc3)C3COC(=O)C23)OCO4)cc(OC)c1O` (stereo not drawn) [Example 11, 4'-O-Demethyl-4β-(4"-cyanobenzylamino)-4-desoxypodophyllotoxin], in series [6], the “inhibition of cellular protein-DNA complex formation relative to etoposide” value is “over twice”. Moreover, the IC50 in series [2] (setting [10]) is 25 µM; in the series with KB cells (Table 1) it was less than 400 nM. Also, in series [2], the “inhibition of DNA topoisomerase activity relative to etoposide” value is on record as “over twice”.

Turning to `COc1cc(C2c3cc4c(cc3C(Nc3ccc([N+](=O)[O-])cc3)C3COC(=O)C23)OCO4)cc(O)c1O` (stereo not drawn) [Example 23, 3',4'-O-Didemethyl-4β-(4"-nitroanilino)-4-desoxypodophyllotoxin], in series [6], the “inhibition of cellular protein-DNA complex formation relative to etoposide” value is “over twice”. Further, the values for the IC50 (in series [2] (setting [7]); in the series with KB cells (Table 2)) were 10 µM and 1300 nM, respectively. The “inhibition of DNA topoisomerase activity relative to etoposide” value in series [2] is recorded as “over twice”.

Regarding `COc1cc([C@@H]2c3cc4c(cc3[C@@H](NC(=O)c3ccc(C#N)cc3)[C@H]3COC(=O)[C@H]23)OCO4)cc(OC)c1O` [Example 40, 4'-O-Demethyl-4β-[(4"-cyanobenzoyl)amino]-4-desoxypodophyllotoxin], the results for the IC50 (in series [2] (setting [9]); in the series with KB cells (Table 4)) were 25 µM and 100 nM, respectively.

As to `COc1cc(C2c3cc4c(cc3C(NCc3ccc(F)cc3)C3COC(=O)C23)OCO4)cc(OC)c1O` (stereo not drawn) [Example 9, 4'-O-Demethyl-4β-(4"-fluorobenzylamino)-4-desoxypodophyllotoxin], the IC50 in series [2] (setting [10]) is 50 µM; in the series on KB cells (Table 1), more than 4000 nM.

Take `COc1cc([C@@H]2c3cc4c(cc3[C@@H](NC(=O)c3ccc(F)cc3)[C@H]3COC(=O)[C@H]23)OCO4)cc(OC)c1O` [Example 36, 4'-O-Demethyl-4β-[(4"-fluorobenzoyl)amino]-4-desoxypodophyllotoxin]: the IC50 in series [2] (setting [9]) was found to be 25 µM; in the series with KB cells (Table 4) it was 340 nM.

Regarding `COc1cc([C@@H]2c3cc4c(cc3[C@@H](NC(=O)c3ccc(C(C)=O)cc3)[C@H]3COC(=O)[C@H]23)OCO4)cc(OC)c1O` [Example 38], the IC50 in series [2] (setting [9]) stood at 50 µM; with KB cells (Table 4), 1000 nM.

As to `COc1cc(C2c3cc4c(cc3C(NCc3cccc(F)c3)C3COC(=O)C23)OCO4)cc(OC)c1O` (stereo not drawn) [Example 8, 4-O-Dimethyl-4β-(3"-fluorobenzylamino)-4-desoxypodophyllotoxin], the “inhibition of cellular protein-DNA complex formation relative to etoposide” value in series [6] was “over twice”. For the same compound, the figures for the IC50 (in series [2] (setting [10]); with KB cells (Table 1)) were 25 µM and 3000 nM, respectively. The “inhibition of DNA topoisomerase activity relative to etoposide” value in series [2] was “over twice”.

For the compound `COc1cc(C2c3cc4c(cc3C(NCc3ccccc3F)C3COC(=O)C23)OCO4)cc(OC)c1O` (stereo not drawn) [Example 7, 4-O-Demethyl-4β-(2"-fluorobenzylamino)-4-desoxypodophyllotoxin], the figures for the IC50 (in series [2] (setting [10]); in the series on KB cells (Table 1)) were 100 µM and 1900 nM, respectively.

Turning to `CCOC(=O)c1ccc(N[C@@H]2c3cc(OC)c(OC)cc3[C@@H](c3cc(OC)c(O)c(OC)c3)[C@H]3C(=O)OC[C@@H]32)cc1` [Example 33, 6,7-O-demethylene-6,7-O-dimethyl-4'-O-demethyl-4β-[4"-(ethoxycarbonyl)anilino]-4-desoxypodophyllotoxin], the IC50 in series [2] (setting [8]) was 100 µM; with KB cells (Table 3), less than 400 nM.

Regarding `COc1cc(C2c3cc4c(cc3C(NCc3cccc(C#N)c3)C3COC(=O)C23)OCO4)cc(OC)c1O` (stereo not drawn) [Example 10, 4'-O-Demethyl-4β-(3"-cyanobenzylamino)-4-desoxypodophyllotoxin], the “inhibition of cellular protein-DNA complex formation relative to etoposide” value in series [6] is on record as “over twice”. Further, the IC50 is 25 µM in series [2] (setting [10]) and less than 400 nM in the series on KB cells (Table 1). Moreover, the “inhibition of DNA topoisomerase activity relative to etoposide” value in series [2] is recorded as “over twice”.

Take `CCOC(=O)c1ccc(N[C@@H]2c3cc(O)c(O)cc3[C@@H](c3cc(OC)c(O)c(OC)c3)[C@H]3C(=O)OC[C@@H]32)cc1` [Example 28, 6,7-O-Demethylene-4'-O-demethyl-4β-[4"-(ethoxycarbonyl)anilino]-4-desoxypodophyllotoxin]: the IC50 came to 20 µM in series [2] (setting [8]) and 780 nM with KB cells (Table 3).

`COc1cc([C@@H]2c3cc4c(cc3[C@@H](NC(=O)c3cccc(C#N)c3)[C@H]3COC(=O)[C@H]23)OCO4)cc(OC)c1O` [Example 39, 4'-O-Demethyl-4β-[(3"-cyanobenzoyl)amino]-4-desoxypodophyllotoxin]: the IC50 is 50 µM in series [2] (setting [9]) and 1000 nM with KB cells (Table 4).

As for `COc1cc(C2c3cc4c(cc3C(NCc3cccc([N+](=O)[O-])c3)C3COC(=O)C23)OCO4)cc(OC)c1O` (stereo not drawn) [Example 5, 4'-O-Demethyl-4β-(3"-nitrobenzylamino)-4-desoxypodophyllotoxin], the IC50 in series [2] (setting [10]) is 25 µM; with KB cells (Table 1), less than 400 nM.
